We go through seven molecules from patent US10005818B2, “Derivative peptide compounds and methods of use” (REALTA HOLDINGS, LLC, priority 2010, dated 2018).

Series [1] relates to complement activation in factor B-depleted human sera. The format is biochemical. Summed up:
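Peptides at 0.77 mM final in factor B-depleted human serum, or serially diluted in it, incubated 1 h at 37 °C. Then diluted into GVBS++ with sensitized sheep RBCs for 1 h at 37 °C, with hemolysis read at 412 nm. Percent lysis relative to serum-only control, soluble peptides normalized to water and insoluble ones to DMSO, triplicate means.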

The nature of series [2]: Solubility in water. The format is physicochemical.
Setting [3] is: Table 7, PEGylated and sarcosine/alanine substitution peptides.
Where [4] appears, read: Table 5, sarcosine substitution peptides.

Square brackets hold non-standard residues; d marks the D form. Peptide text beside a SMILES is read from it. Sar = CNCC(=O)O

For the molecule `CC[C@H](C)[C@H](N)C(=O)N[C@@H](C)C(=O)N[C@@H](CC(C)C)C(=O)N[C@H](C(=O)N[C@@H](CC(C)C)C(=O)N[C@@H](CCC(=O)O)C(=O)N1CCC[C@H]1C(=O)N[C@H](C(=O)N[C@@H](CS)C(=O)N[C@@H](CS)C(=O)N(C)CC(=O)N[C@@H](CCC(=O)O)C(=O)N[C@@H](CCCNC(=N)N)C(=O)N[C@@H](C)C(=O)N[C@@H](C)C(=O)NCCOCCOCCOCCOCCOCCOCCOCCOCCOCCOCCOCCOCCOCCOCCOCCOCCOCCOCCOCCOCCOCCOCCOCCOCCC(=O)O)[C@@H](C)CC)[C@@H](C)CC` [PA-Q11Sar-dPEG24], in series [1], the “Hemolysis (%)” value came to 12.04%. Further, the Solubility in water result in series [2] (setting [3]) was “Yes”.
Turning to “dPEG24-IALILEPICCQERAA-dPEG24 (cysteine pairing not given here) [dPEG24-PA-dPEG24]”, in series [1] (factor B depleted serum), the “inhibition of complement activity in hemolytic assay” value is “varying degrees of complement inhibition”. The “solubility in water / aqueous solutions” value in series [2] is on record as “soluble in water”.
Take `CC[C@H](C)[C@H](N)C(=O)N[C@@H](C)C(=O)N[C@@H](CC(C)C)C(=O)N[C@H](C(=O)N[C@@H](CC(C)C)C(=O)N[C@@H](CCC(=O)O)C(=O)N1CCC[C@H]1C(=O)N[C@H](C(=O)N(C)CC(=O)N[C@@H](CCC(N)=O)C(=O)N[C@@H](CCC(=O)O)C(=O)N[C@@H](CCCNC(=N)N)C(=O)N[C@@H](C)C(=O)N[C@@H](C)C(=O)O)[C@@H](C)CC)[C@@H](C)CC` [PA-C9SarD10] (H-IALILEPI[Sar]QERAA-OH): the “Hemolysis (%)” value in series [1] was 100.52%. The Solubility in water entry in series [2] (setting [3]) is recorded as “Yes”.
On the same counts, the results for `CC[C@H](C)[C@H](N)C(=O)N[C@@H](C)C(=O)N[C@@H](CC(C)C)C(=O)N[C@H](C(=O)N[C@@H](CC(C)C)C(=O)N(C)CC(=O)N1CCC[C@H]1C(=O)N[C@H](C(=O)N[C@@H](CS)C(=O)N[C@@H](CS)C(=O)N[C@@H](CCC(N)=O)C(=O)N[C@@H](CCC(=O)O)C(=O)N[C@@H](CCCNC(=N)N)C(=O)N[C@@H](C)C(=O)N[C@@H](C)C(=O)NCCOCCOCCOCCOCCOCCOCCOCCOCCOCCOCCOCCOCCOCCOCCOCCOCCOCCOCCOCCOCCOCCOCCOCCOCCC(=O)O)[C@@H](C)CC)[C@@H](C)CC` [PA-E6Sar-dPEG24] are 12.88% and “Yes”.
Take `CC[C@H](C)[C@H](N)C(=O)N[C@@H](C)C(=O)N[C@@H](CC(C)C)C(=O)N[C@H](C(=O)N(C)CC(=O)N[C@@H](CCC(=O)O)C(=O)N1CCC[C@H]1C(=O)N[C@H](C(=O)N[C@@H](CS)C(=O)N[C@@H](CS)C(=O)N[C@@H](CCC(N)=O)C(=O)N[C@@H](CCC(=O)O)C(=O)N[C@@H](CCCNC(=N)N)C(=O)N[C@@H](C)C(=O)N[C@@H](C)C(=O)O)[C@@H](C)CC)[C@@H](C)CC` [PA-L5Sar] (H-IALI[Sar]EPICCQERAA-OH; N-terminus and C-terminus assumed): the “Hemolysis (%)” value in series [1] is 85.13%. In addition, the Solubility in water result in series [2] (setting [4]) is listed as “Yes”.
For `CC[C@H](C)[C@H](N)C(=O)N[C@@H](C)C(=O)N[C@@H](CC(C)C)C(=O)N[C@H](C(=O)N[C@@H](CC(C)C)C(=O)N[C@@H](CCC(=O)O)C(=O)N1CCC[C@H]1C(=O)N[C@H](C(=O)N(C)CC(=O)N[C@@H](CS)C(=O)N[C@@H](CCC(N)=O)C(=O)N[C@@H](CCC(=O)O)C(=O)N[C@@H](CCCNC(=N)N)C(=O)N(C)CC(=O)N[C@@H](C)C(=O)O)[C@@H](C)CC)[C@@H](C)CC` [Peptide A14SarC9Sar] (H-IALILEPI[Sar]CQER[Sar]A-OH), the “Hemolysis (%)” value in series [1] is listed as 14.73%. For the same molecule, the Solubility in water result in series [2] (setting [3]) is “No”.
For `CC[C@H](C)[C@H](N)C(=O)N[C@@H](C)C(=O)N[C@@H](CC(C)C)C(=O)N[C@H](C(=O)N[C@@H](CC(C)C)C(=O)N(C)CC(=O)N1CCC[C@H]1C(=O)N[C@H](C(=O)N[C@@H](CS)C(=O)N[C@@H](CS)C(=O)N[C@@H](CCC(N)=O)C(=O)N[C@@H](CCC(=O)O)C(=O)N[C@@H](CCCNC(=N)N)C(=O)N[C@@H](C)C(=O)N[C@@H](C)C(=O)O)[C@@H](C)CC)[C@@H](C)CC` [PA-E6Sar], the “Hemolysis (%)” value in series [1] is given as 5.19%. The Solubility in water entry in series [2] (setting [4]) is “No”.
